Some results are limits rather than exact numbers.

The record followed here is US12129237B2, “Substituted diaminocarboxamide and diaminocarbonitrile pyrimidines, compositions thereof, and methods of treatment therewith” (SIGNAL PHARMACEUTICALS, LLC, priority 2011, dated 2024).

The target in the first experiment is T1, JNK1 (Homo sapiens, UniProt P45983).
T1 construct: purchased Carna Biosciences
T1 sequence (P45983 whole entry): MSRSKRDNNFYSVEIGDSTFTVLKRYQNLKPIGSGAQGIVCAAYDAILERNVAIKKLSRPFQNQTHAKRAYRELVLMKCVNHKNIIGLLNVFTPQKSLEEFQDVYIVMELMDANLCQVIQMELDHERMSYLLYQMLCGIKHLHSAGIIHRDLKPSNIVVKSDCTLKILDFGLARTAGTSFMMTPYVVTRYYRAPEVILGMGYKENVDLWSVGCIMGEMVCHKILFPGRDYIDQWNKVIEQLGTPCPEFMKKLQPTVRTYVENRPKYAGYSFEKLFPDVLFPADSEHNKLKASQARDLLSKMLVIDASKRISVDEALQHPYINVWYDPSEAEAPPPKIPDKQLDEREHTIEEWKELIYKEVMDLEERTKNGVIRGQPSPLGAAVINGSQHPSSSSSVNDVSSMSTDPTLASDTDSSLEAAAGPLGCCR
Nature of the experiment: JNK1 biochemical assays (one or more of: time resolved fluorescence, Z'-LYTE Cascade, radioactive). The note with it: Table 2; JNK1 IC50 activity level; read-out: Act. Level.
Consider `C[C@H](Nc1ncc(C(N)=O)c(N[C@@H]2CCC[C@H](O)C2)n1)c1ccc(F)cc1` [Example B-90, 2-((S)-1-(4-fluorophenyl)ethylamino)-4-((1R,3S)-3-hydroxycyclohexylamino)pyrimidine-5-carboxamide], for which the IC50 was 1000 to 10000 nM. As for `CCCNc1ncc(C(N)=O)c(Nc2ccccc2)n1` [Example B-68, 4-(phenylamino)-2-(propylamino)pyrimidine-5-carboxamide], the IC50 lay within 200 to 800 nM. Same read-out and setting: under `CC(CNc1ncc(C(N)=O)c(Nc2ccccc2)n1)c1ccccc1` (centres unmarked) [Example B-72, 4-(phenylamino)-2-(2-phenylpropylamino)pyrimidine-5-carboxamide] stands 200 to 800 nM; under `NC(=O)c1cnc(N[C@@H]2CCCc3ccccc32)nc1N[C@@H]1CCC[C@H](O)C1` [Example B-74, 4-((1R,3S)-3-hydroxycyclohexylamino)-2-((R)-1,2,3,4-tetrahydronaphthalen-1-ylamino)pyrimidine-5-carboxamid], under 200 nM.

The experiment is the same for the next values; noted with them: Table 3; JNK1 IC50 activity level; read-out: Act. Level.
Consider `CCO[C@H]1CC[C@H](Nc2ncc(C#N)c(N[C@H]3CC[C@@H](O)CC3)n2)CC1` [Example C-22, 2-((1r,4r)-4-ethoxycyclohexylamino)-4-((1s,4s)-4-hydroxycyclohexylamino) pyrimidine-5-carbonitrile], for which the IC50 fell in the range of 200 to 800 nM. On to `CO[C@H]1CC[C@](C)(Nc2ncc(C#N)c(N[C@@H]3CCC[C@H](O)C3)n2)CC1` [Example C-57, 4-((1R,3S)-3-hydroxycyclohexylamino)-2-((1r,4R)-4-methoxy-1-methylcyclohexylamino) pyrimidine-5-carbonitrile], for which the IC50 lay within 200 to 800 nM.

The same experiment, now with this note: one or more of the JNK1 biochemical assays; read-out: Act. Level (JNK1 IC50 activity level).
For `CC(C)(Nc1nc(NC23CCC(O)(CC2)CC3)ncc1C(N)=O)C1CC1` [Example 479, 4-(2-cyclopropylpropan-2-ylamino)-2-(4-hydroxybicyclo[2.2.2]octan-1-ylamino)pyrimidine-5-carboxamide], the IC50 was under 200 nM.

`C[C@H](Nc1nc(N[C@H]2CC[C@H](O)CC2)ncc1C(N)=O)C1CCC1` [Example 297, 4-((S)-1-cyclobutylethylamino)-2-((1r,4S)-4-hydroxycyclohexylamino)pyrimidine-5-carboxamide]: the IC50 is under 200 nM. The same measure, in the same setting: with `C[C@@H]1CC[C@@H](Nc2nc(NCC3CC3)ncc2C(N)=O)C[C@H]1O` [Example 472, 2-(cyclopropylmethylamino)-4-((1R,3R,4R)-3-hydroxy-4-methylcyclohexylamino)pyrimidine-5-carboxamide] the figure was under 200 nM; with `CCO[C@H]1CC[C@H](Nc2ncc(C(N)=O)c(N[C@@H](CC)C3CC3)n2)CC1` [Example 373, 4-((S)-1-cyclopropylpropylamino)-2-((1r,4S)-4-ethoxycyclohexylamino)pyrimidine-5-carboxamide], under 200 nM. With `CO[C@H]1CC[C@H](Nc2ncc(C(N)=O)c(N[C@H](C)C3CC3)n2)CC1` [Example 421, 4-((R)-1-cyclopropylethylamino)-2-((1r,4R)-4-methoxycyclohexylamino)pyrimidine-5-carboxamide], the IC50 was under 200 nM. Still for that read-out and setting: under `CC(C)(C)Nc1nc(N[C@@H]2CCC[C@H](O)C2)ncc1C(N)=O` [Example 307, 4-(tert-butylamino)-2-((1R,3S)-3-hydroxycyclohexylamino)pyrimidine-5-carboxamide] stands under 200 nM; under `CCO[C@H]1CC[C@H](Nc2ncc(C(N)=O)c(NC3(CC)CCC3)n2)CC1` [Example 360, 2-((1r,4r)-4-ethoxycyclohexylamino)-4-(1-ethylcyclobutylamino)pyrimidine-5-carboxamide], under 200 nM; under `CC(C)[C@H](C)Nc1nc(N[C@H]2CC[C@H](O)CC2)ncc1C(N)=O` [Example 284, 2-((1r,4S)-4-hydroxycyclohexylamino)-4-((S)-3-methylbutan-2-ylamino)pyrimidine-5-carboxamide], under 200 nM.

Turning to `C[C@H](Nc1nc(N[C@H]2CC[C@H](O)CC2)ncc1C(N)=O)C(C)(C)C` [Example 280, 4-((S)-3,3-dimethylbutan-2-ylamino)-2-((1r,4S)-4-hydroxycyclohexylamino)pyrimidine-5-carboxamide], the IC50 was under 200 nM.

Regarding `CCO[C@H]1CC[C@H](Nc2ncc(C(N)=O)c(NC34CC(C)(C3)C4)n2)CC1` [Example 443, 2-((1r,4r)-4-ethoxycyclohexylamino)-4-(3-methylbicyclo[1.1.1]pentan-1-ylamino)pyrimidine-5-carboxamide], the IC50 is under 200 nM.

The experiment is the same for the next values; noted with them: tested in one or more of the JNK1 biochemical assays; read-out: Act. Level (JNK1 biochemical assay IC50 activity level).
As to `NC(=O)c1cnc(N[C@H]2CC[C@H](N3CCCC3)CC2)nc1N[C@@H]1CCC[C@H](O)C1` [Example A-153, 4-((1R,3S)-3-hydroxycyclohexylamino)-2-((1r,4R)-4-(pyrrolidin-1-yl)cyclohexylamino)pyrimidine-5-carboxamide], the IC50 is under 200 nM. Consider `NC(=O)c1cnc(N[C@H]2CC[C@H](O)CC2)nc1NC1CCCC1` [Example A-148, 4-(cyclopentylamino)-2-((1r,4r)-4-hydroxycyclohexylamino)pyrimidine-5-carboxamide], for which the IC50 is under 200 nM. As for `CO[C@H]1CC[C@H](Nc2ncc(C(N)=O)c(NC3(CO)CCCC3)n2)CC1` [Example A-78, 4-(1-(hydroxymethyl)cyclopentylamino)-2-((1r,4r)-4-methoxycyclohexylamino)pyrimidine-5-carboxamide], the IC50 was under 200 nM.

Regarding `CCO[C@H]1CC[C@H](Nc2ncc(C(N)=O)c(N[C@@H]3CCC[C@@H]3O)n2)CC1` [Example A-104, 2-((1r,4R)-4-ethoxycyclohexylamino)-4-((1R,2S)-2-hydroxycyclopentylamino)pyrimidine-5-carboxamide], the IC50 was under 200 nM. The same measure, in the same setting: with `CO[C@H]1CC[C@H](Nc2ncc(C(N)=O)c(N[C@H]3CCC[C@H]3CO)n2)CC1` [Example A-37, 4-((1S,2R)-2-(hydroxymethyl)cyclopentylamino)-2-((1r,4S)-4-methoxycyclohexylamino)pyrimidine-5-carboxamide] the figure was 200 to 800 nM; with `CCC(=O)N1CCC(Nc2ncc(C(N)=O)c(N[C@H]3CC[C@@H](O)CC3)n2)CC1` [Example A-89, 4-((1s,4s)-4-hydroxycyclohexylamino)-2-(1-propionylpiperidin-4-ylamino)pyrimidine-5-carboxamide], under 200 nM. Turning to `NC(=O)c1cnc(N[C@H]2CC[C@H](OC(F)F)CC2)nc1N[C@@H]1CCCC[C@H](O)C1` [Example A-165, 2-((1r,4R)-4-(difluoromethoxy)cyclohexylamino)-4-((1R,3S)-3-hydroxycycloheptylamino)pyrimidine-5-carboxamide], the IC50 is under 200 nM.

As to `CO[C@H]1CC[C@H](Nc2ncc(C(N)=O)c(N[C@H]3CC[C@H](O)CC3)n2)CC1` [Example A-34, 4-((1r,4r)-4-hydroxycyclohexylamino)-2-((1r,4r)-4-methoxycyclohexylamino)pyrimidine-5-carboxamide], the IC50 was under 200 nM. For the molecule `NC(=O)c1cnc(N[C@H]2CC[C@H](OCCF)CC2)nc1N[C@H]1CCC[C@@H]1O` [Example A-75, 2-((1r,4S)-4-(2-fluoroethoxy)cyclohexylamino)-4-((1S,2S)-2-hydroxycyclopentylamino)pyrimidine-5-carboxamide], the IC50 is under 200 nM. Consider `CCO[C@H]1CC[C@@H](Nc2nc(N[C@@H]3CC[C@@H](O)C3)ncc2C(N)=O)CC1` [Example A-95, 4-((1s,4S)-4-ethoxycyclohexylamino)-2-((1R,3R)-3-hydroxycyclopentylamino)pyrimidine-5-carboxamide], for which the IC50 is under 200 nM.
